# Article PMC7367283, “A PIP2 substitute mediates voltage sensor-pore coupling in KCNQ activation” (Communications Biology, 2020)
# Several values for one entry are separate records, joined by “and”; a condition that tells them apart may be missing. Equal entries are not always repeated.
# Target: KCNQ1 (Homo sapiens, UniProt P51787)
# Assay: Two-electrode voltage clamp of WT KCNQ1 expressed in Xenopus oocytes
# Type: cell-based
# Conditions: for Current: Fig. 3b; for G/Gmax Mean: Fig. 3c; for ΔV1/2 of activation induced by CP1: Fig. 3e dose response; for Time constants of deactivation: Fig. 3d, individual values
# Excerpt: Complementary DNA (cDNA) encoding human KCNQ1 (UniProtKB/Swiss-Prot under accession no. P51787), KCNQ2 (O43526), KCNQ3 (O43525), KCNE1 (P15382), Kir1.1 (P48048), hERG (Q12809), KV4.2 (Q63881), NaV1.5 (Q14524), NaV β1 (Q07699), CaV1.2 (Q13936), CaV β1a (Q02641), CaV α2/δ1 (P54289), and HCN4 (Q9Y3Q4) were subcloned into oocyte expression vectors, respectively. Site-directed mutations of the KCNQ1 channel were all produced by overlap extension polymerase chain reaction (PCR) with high-fidelity Pfu polymerase (Stratagene, CA). The presence of the desired mutation was verified by sequencing the PCR-amplified regions. All the primer sequences used in this study are available in Supplementary Table 1. The complementary RNA (cRNA) of all these channels and mutations was transcribed in vitro with the T3, T7, or SP6 polymerase mMessage mMachine kit (Invitrogen, Thermo Fisher Scientific, MO). The use of Xenopus laevis to obtain oocytes was approved by the Washington University Animal Studies Committee (protocol #20190030). Oocytes were manually dispersed and digested with collagenase (0.5 mg/ml, Sigma-Aldrich, Saint Louis, MO) to remove the follicle cell layer. Stage V or VI oocytes were selected and injected with cRNAs (9.2 ng) of channel or mutations. Especially, to characterize IKs, a mix of cRNAs at a molar ratio 4:1 (KCNQ1:KCNE1) was injected. For KCNQ2/KCNQ3, the molar ratio was 1:1 (KCNQ2:KCNQ3). For sodium channels, a 3:1 molar ratio (β1:NaV1.5) and for calcium channels a weight ratio 1:1:1 (β1:α2/δ1:CaV1.2) was injected, respectively. Injected oocytes were incubated in ND96 solution containing (in mM) 96 NaCl, 2 KCl, 1.8 CaCl2, 1 MgCl2, and 5 HEPES, pH 7.6, supplemented with 2.5 mM Na pyruvate and 1% penicillin-streptomycin, at 18 °C for 3-7 days before recording. All electrophysiological recordings on oocytes and isolated ventricular cells were performed at room temperature (20-23 °C). The whole-oocyte ionic currents were recorded with a GeneClamp 500B amplifier (Axon Instruments, CA) or iTEV90 amplifier (HEKA, Germany) and then sampled at 1 kHz and low-pass-filtered at 2 kHz. The Patchmaster software (HEKA, Germany) was used to acquire data. The Kir1.1 current was recorded with a high K^+ bath solution containing (in mM) 96 KCl, 4 NaCl, 1 CaCl2, 2 MgCl2, and 10 HEPES, pH 7.3-7.4. The HCN4 current was recorded in ND66 solution containing (in mM) 66 NaCl, 32 KCl, 1.8 CaCl2, 1 MgCl2, and 5 HEPES, pH 7.6. All the other potassium channels were recorded in ND96 solution. The currents of CaV1.2 channel were recorded in 40 mM Ba^2+ bath solution containing (in mM) 40 Ba(OH)2, 50 TEA-OH, 2 KOH, and 5 HEPES, adjusted to pH 7.4 with methanesulfonic acid. […] All the chemicals were purchased from Sigma-Aldrich. To measure the I-V relations of the Kir1.1 channel, the test voltage was set from -100 to +60 mV for 1 s with 20-mV increments. […] The HCN4 currents were recorded by a test pulse between -30 and -140 mV in 10-mV step from a holding potential of -30 mV. For all the other potassium channels and CaV1.2 channel, the holding potential was -80 or -100 mV, and the test pulse was applied with 10-mV increment, which was followed with a repolarization pulse at -40 mV before returning to the holding potential. The durations of test and the repolarization pulse vary for different channels to allow the activation and deactivation of the channel to reach their steady states. Electrophysiology data were processed with IGOR (Wavemetrics, Lake Oswego, OR), Clampfit (Molecular Devices, Sunnyvale, CA), and SigmaPlot (SPSS, Inc., San Jose, CA). Normalized tail currents were plotted versus prepulse voltage and fitted with the Boltzmann function G = G0 + 1/(1 + exp(V - V1/2)/S), where G0 is the minimum conductance, V1/2 is the half-maximal voltage of activation, and S is the slope factor. […]
smiles,measurement,setting,value
"O=S(=O)([O-])Oc1c(-c2sc3c(ccc4cccc(Cl)c43)c2OS(=O)(=O)[O-])[nH]c2ccc(Br)cc12.[Na+].[Na+] [CP1, DISODIUM 5-BROMO-2-[9-CHLORO-3-(SULFONATOOXY) NAPHTHO [1,2-B] THIEN-2-YL]-1H-INDOL-3-YL SULFATE]",outward current (Icp1/Ictrl),"10 µM CP1, Q1, at −10 mV, individual oocytes",0.8052 and 0.8187 and 0.929 and 0.8224 and 0.7283
same,∆V1/2,"10 µM CP1, Q1, individual oocytes (Fig. 5c)",44.3815 mV and 57.8695 mV and 53.8703 mV and 54.2596 mV and 54.8585 mV
same,∆V1/2,"10 µM CP1, WT, individual oocytes",47.2416 mV and 59.5412 mV and 44.3815 mV and 57.8695 mV and 53.8703 mV and 54.2596 mV and 54.8585 mV and 51.8892 mV and 58.8475 mV and 52.7212 mV and 56.3253 mV
same,τ deact at -120 mV,"10 µM CP1 treated, Q1, individual oocytes",1.3301 s and 1.9909 s and 0.8395 s and 0.9034 s and 1.9351 s and 1.4782 s and 1.0081 s
same,Current,"10 µM CP1, 0 mV",3.7050 µA
same,Current,"10 µM CP1, 10 mV",4.0550 µA
same,Current,"10 µM CP1, 20 mV",4.3975 µA
same,Current,"10 µM CP1, 30 mV",4.6856 µA
same,Current,"10 µM CP1, 40 mV",4.8369 µA
same,Current,"10 µM CP1, -10 mV",3.2725 µA
same,Current,"10 µM CP1, -20 mV",2.9419 µA
same,Current,"10 µM CP1, -30 mV",2.4731 µA
same,Current,"10 µM CP1, -40 mV",1.9956 µA
same,Current,"10 µM CP1, -50 mV",1.5250 µA
same,Current,"10 µM CP1, -60 mV",1.0387 µA
same,Current,"10 µM CP1, -70 mV",0.5337 µA
same,Current,"10 µM CP1, -80 mV",0.1319 µA
same,Current,"10 µM CP1, -90 mV",-0.1563 µA
same,Current,"10 µM CP1, -100 mV",-0.3112 µA
same,Current,"10 µM CP1, -110 mV",-0.3831 µA
same,Current,"10 µM CP1, -120 mV",-0.4494 µA
same,G/Gmax Mean,"10 µM CP1, 0 mV",0.9915
same,G/Gmax Mean,"10 µM CP1, 10 mV",0.9924
same,G/Gmax Mean,"10 µM CP1, -10 mV",1.0000
same,G/Gmax Mean,"10 µM CP1, -20 mV",0.9950
same,G/Gmax Mean,"10 µM CP1, -30 mV",0.9789
same,G/Gmax Mean,"10 µM CP1, -40 mV",0.9526
same,G/Gmax Mean,"10 µM CP1, -50 mV",0.9082
same,G/Gmax Mean,"10 µM CP1, -60 mV",0.8392
same,G/Gmax Mean,"10 µM CP1, -70 mV",0.7434
same,G/Gmax Mean,"10 µM CP1, -80 mV",0.6159
same,G/Gmax Mean,"10 µM CP1, -90 mV",0.4868
same,G/Gmax Mean,"10 µM CP1, -100 mV",0.3712
same,G/Gmax Mean,"10 µM CP1, -110 mV",0.2836
same,G/Gmax Mean,"10 µM CP1, -120 mV",0.2306
same,ΔV1/2 of activation induced by CP1,"1 µM CP1, individual values",10.5419 and 2.1756 and 5.0919
same,ΔV1/2 of activation induced by CP1,"2 µM CP1, individual values",12.1917 and 9.8070 and 18.4095 and 22.1605 and 21.9879 and 9.1767 and 12.7137
same,ΔV1/2 of activation induced by CP1,"5 µM CP1, individual values",24.5897 and 25.8044 and 18.4530 and 34.4519 and 16.0115 and 11.0322
same,ΔV1/2 of activation induced by CP1,"10 µM CP1, individual values",47.2416 and 73.6056 and 59.5412 and 44.3815 and 57.8695 and 53.8703 and 54.2596 and 54.8585 and 51.8892 and 58.8475 and 52.7212 and 56.3253
same,ΔV1/2 of activation induced by CP1,"25 µM CP1, individual values",80.4973 and 70.5486 and 58.5444
same,ΔV1/2 of activation induced by CP1,"50 µM CP1, individual values",90.4999 and 79.3797 and 90.4855
same,Time constants of deactivation,"10 µM CP1, -90 mV",3656.5 ms and 3430.6 ms and 3945.9 ms and 3244.2 ms
same,Time constants of deactivation,"10 µM CP1, -100 mV",3169.0 ms and 2901.8 ms and 2335.0 ms and 2809.3 ms and 2214.2 ms
same,Time constants of deactivation,"10 µM CP1, -110 mV",1447.9 ms and 2103.3 ms and 1665.7 ms and 1887.0 ms and 1619.5 ms
same,Time constants of deactivation,"10 µM CP1, -120 mV",823.6 ms and 1460.2 ms and 1255.8 ms and 1290.8 ms and 1343.2 ms
same,EC50,"KCNQ1 expressed alone in oocytes, Hill fit, read-out: EC50 of G–V shift (ΔV1/2 of activation) versus CP1 concentration",8.73 ± 0.68 µM
same,ion selectivity of KCNQ1 channels,Supplementary Fig. 2,does not alter the ion selectivity
same,G/Gmax,"WT, 10 µM CP1, -20 mV",1.0000
same,G/Gmax,"WT, 10 µM CP1, -30 mV",0.9911
same,G/Gmax,"WT, 10 µM CP1, -40 mV",0.9627
same,G/Gmax,"WT, 10 µM CP1, -50 mV",0.9093
same,G/Gmax,"WT, 10 µM CP1, -60 mV",0.8189
same,G/Gmax,"WT, 10 µM CP1, -70 mV",0.6709
same,G/Gmax,"WT, 10 µM CP1, -80 mV",0.4831
same,G/Gmax,"WT, 10 µM CP1, -90 mV",0.2996
same,G/Gmax,"WT, 10 µM CP1, -100 mV",0.1522
same,G/Gmax,"WT, 10 µM CP1, -110 mV",0.0549
same,G/Gmax,"WT, 10 µM CP1, -120 mV",0.0000
